Numbers after ± are expanded uncertainties.
Conditions: Liquid, Ebulliometric method (Recirculating still)

CCNCCN [N-ethylethane-1,2-diamine]
Conditions	vapor or sublimation pressure [kPa]
358 K	20.8 ± 1.2
366.5 K	29.6 ± 1.2
374.1 K	39.5 ± 1.2
380.3 K	49.7 ± 1.3
390.2 K	69.5 ± 1.3
398.3 K	90.2 ± 1.3
401.9 K	101.2 ± 3.5
402.2 K	101.5 ± 1.3
